Values of other authors as cited in US8338382B2, “Method of treating impaired mitochondrial function” (priority 1997, dated 2012).

Test system: depressed patients
Conditions: literature (Sabelli 2002, 2000)

## NCCc1ccccc1 [PEA, 2-Phenylethylamine]
  share of depressed patients in whom PEA is effective / controls depression: 60%
  toxic effects, tolerance or abuse: no toxic effects, tolerance or abuse
